# Measured values from publication PMC10265003 (Royal Society Open Science, 2023).
# Like-named read-outs stand apart in the source and are kept apart here. Positions of bridges follow the written chain, without caps; N, C: chain ends. Non-standard residues stand in square brackets, D forms with d. Residues, ends and D or L forms follow the SMILES beside them. Chains are numbered I, II in the order given. Bpa = N[C@@H](Cc1ccc(C(=O)c2ccccc2)cc1)C(=O)O; Dip = N[C@H](C(=O)O)C(c1ccccc1)c1ccccc1; 1Nal = N[C@@H](Cc1cccc2ccccc12)C(=O)O; hPhe = N[C@@H](CCc1ccccc1)C(=O)O; Ahx = NCCCCCC(=O)O
# What was measured:
# MCF-7 breast cancer line = type: cell-based, human
# Description: (§1) The MTT assay was performed in accordance with previous reports. Briefly, the cells were seeded with a complete medium in 96-well plates at a rate of 10 000 cells and 100 µl per well, and adhesion to the plates was allowed for 24 h. Later, the complete medium was removed, and an incomplete medium was added for synchronization for another 24 h. The cells were then incubated at 37°C for 2 h with 100 µl of peptide at the evaluated concentrations (200, 100, 50, 25, 12.5 and 6.25 µg ml^−1). Next, the peptide was removed from the well and 100 µl of incomplete medium with 10% MTT was added and incubated for 4 h. The medium was replaced with 100 µl of isopropanol, and after 30 min of incubation at 37°C, the absorbance was measured at 575 nm. As a negative control, an incomplete culture medium with 10% MTT was used, and as a positive control, cells without MTT treatment were used. The IC50 value was determined from figure 1 (peptide concentration versus per cent cell viability) using a nonlinear regression model with variable slope and GraphPad Prism 9 statistical analysis software.
# [1] = tested on: HeLa human cervical cancer cell line; type: cell-based; conditions: 2 h
# Description: as §1
# [2] = tested on: human primary fibroblasts; type: cell-based; conditions: for IC50 fibroblasts: 2 h
# Text: Rink amide resin, Fmoc-Arg(Pbf)-OH, Fmoc-Trp(Boc)-OH, Fmoc-Gln(Trt)-OH, Fmoc-Phe-OH, Fmoc-Lys(Boc)-OH, Fmoc-Leu-OH, Fmoc-Gly-OH, Fmoc-6-Ahx-OH, Fmoc-Lys(Fmoc)-OH, Triton-X, piperidine, N,N-dimethylformamide (DMF), dichloromethane (DCM), dicyclohexylcarbodiimide (DCC), 1-hydroxy-6-chloro-benzotriazole (6-Cl-HOBt), ninhydrin, potassium cyanide (KCN), ethanol, pyridine, phenol, trifluoroacetic acid (TFA), ethyl ether, triisopropylsilane (TIS), ethanedithiol (EDT), acetonitrile (ACN), methanol (MeOH) and solid phase extraction columns Supelco, Trypsin-EDTA solution and pepsin 2500 units mg^−1 were purchased from Sigma-Aldrich (St Louis, MO, USA). The non-natural amino acids diphenylalanine, 1-naphthyl-phenylalanine, 4-benzoyl-phenylalanine, homophenylalanine (hF), 4-(Fmoc-amino) benzoic acid (4-Abz) and 2-(Fmoc-amino) benzoic acid (2-Abz) were obtained from AAPPTec (Louisville, KY, USA). The cell lines MCF-7, HeLa, HEK-293 were purchased from ATCC (Manassas, VA). The primary cell culture of fibroblasts was obtained from the foreskin by the Laboratory of Cellular Physiology of the National University of Colombia, and the fibroblasts were cultured and frozen. Some vials were thawed and cultured for up to seven passes, since no transformation/immortalization was done. Annexin V and Alexa Fluor 488 conjugate was purchased from Invitrogen (Eugene, Oregon). The DMEM culture medium and trypsin were obtained from Sigma-Aldrich (St Louis, MO, USA). Bovine fetal serum was purchased from Gibco (Waltham, MA, USA). Calcium assay kit and Fluorescein CaspGLOW Active Caspase-8 or Caspase-9 Staining Kit were obtained for BD Biosciences (San Diego, CA, USA) and Invitrogen Thermo Fisher Scientific (Waltham, MA, USA), respectively.
# as §1, with “The cells were then incubated at 37°C for 2 h with 100 µl of peptide at the evaluated concentrations (200, 100, 50, 25, 12.5 and 6.25 µg ml^−1).” left out
# [3] = tested on: HEK-293 human kidney cell line; type: cell-based; conditions: for IC50 HEK-293: 2 h
# Description: as §1, with “The cells were then incubated at 37°C for 2 h with 100 µl of peptide at the evaluated concentrations (200, 100, 50, 25, 12.5 and 6.25 µg ml^−1).” left out
# human erythrocytes = type: cell-based
# Description: Haemolysis assays were performed in accordance with Cárdenas et al.. The blood was donated by healthy volunteers with blood type O^+. First, 5 ml of peripheral blood in EDTA was centrifuged at 500 r.p.m. for 15 min, and the erythrocytes were separated and washed three times with 0.9% saline solution. Then 100 µl of peptide solution (final concentrations of 200 at 6.2 µg ml^−1) was mixed with 100 µl of erythrocytes (2% haematocrit) and incubated at 37°C for 2 h. It was then centrifuged at 2500 r.p.m. for 5 min and the absorbance of the supernatant was measured at 450 nm. Two controls were used; positive control: distilled water, and negative control: saline solution 0.9%.
# CD1 mice = test: Peptide toxicity in vivo model (Irwin test, survival)
# Description: Experiment 1. CD1 mice male (eight weeks old, weighing 33–35 g) were housed in groups of six animals per cage for each peptide ^26[F] and ^26[1-Nal]; three mice were inoculated by intraperitoneal via ip, and three mice were inoculated by subcutaneous via sc. Mice inoculated via ip or sc with saline solution were used as control. The peptide was dissolved in saline solution (7 mg ml^−1) and the mice were inoculated only one time with 0.33–0.35 ml (dosage 70 mg kg^−1) via ip or sc. Experiment 2. CD1 mice female (n = 4, eight weeks old, weighing 33–35 g) were inoculated only one time with peptide ^26[F] (dosage 140 mg kg^−1) or ^26[1-Nal] (8.8 to 70 mg kg^−1).
# To determine the toxicity of peptides ^26[F] and ^26[1-Nal] in vivo model, a preliminary study was carried out in CD1 male mice. The Irwin test was used to evaluate in qualitative manner the effect of peptide administration over motor functions, behaviour, physiology and pharmacological safety in rodents. This test is used as a first approach to study of the adverse effects generated by a pharmaceutical treatment in an in vivo model in preclinical test.
# pepsin = pepsin (Sus scrofa, UniProt P00791); conditions: pH 2
# Description: Pepsin was dissolved in 0.010 M HCl (pH 2.0). An aliquot of 50 µl was added to each peptide solution in a 1 : 100 (w/w) ratio. The peptides were dissolved in H2O-TFA 0.05% (v/v). This was incubated at 37°C for 3 h, aliquots were taken at 0 and 3 h, and the samples were heated for 5 min and then cooled at 4°C for the thermal inactivation of pepsin and characterized via HPLC and LC-MS.
# trypsin = trypsin (Sus scrofa, UniProt P00761)
# Description: Trypsin (20 μg) was dissolved in 450 µl of the buffer supplied by the manufacturer, and 50 µl was added to each peptide solution, maintaining a protease : peptide ratio of 1 : 100 (w/w). The samples were incubated at 37°C for 24 h. Aliquots were taken at 0, 5, 10, 15 and 20 min, the enzymatic reaction was stopped by adding 1 M HCl, and the mixture was analysed via RP-HPLC and LC-MS. Bovine serum albumin (BSA) and bovine lactoferrin (bLF) were used as the positive control, and the negative control was the peptide in buffer solution without trypsin.
# [4] = ratio of IC50 values, in brackets
# Chain of trypsin (P00761 9-231): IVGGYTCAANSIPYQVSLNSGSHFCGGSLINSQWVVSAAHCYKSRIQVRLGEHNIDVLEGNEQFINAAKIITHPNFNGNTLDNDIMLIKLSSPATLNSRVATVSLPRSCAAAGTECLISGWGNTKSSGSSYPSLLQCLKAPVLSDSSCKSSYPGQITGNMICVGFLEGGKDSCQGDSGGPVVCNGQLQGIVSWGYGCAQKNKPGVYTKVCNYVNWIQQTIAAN
# Chain of pepsin (P00791 60-385): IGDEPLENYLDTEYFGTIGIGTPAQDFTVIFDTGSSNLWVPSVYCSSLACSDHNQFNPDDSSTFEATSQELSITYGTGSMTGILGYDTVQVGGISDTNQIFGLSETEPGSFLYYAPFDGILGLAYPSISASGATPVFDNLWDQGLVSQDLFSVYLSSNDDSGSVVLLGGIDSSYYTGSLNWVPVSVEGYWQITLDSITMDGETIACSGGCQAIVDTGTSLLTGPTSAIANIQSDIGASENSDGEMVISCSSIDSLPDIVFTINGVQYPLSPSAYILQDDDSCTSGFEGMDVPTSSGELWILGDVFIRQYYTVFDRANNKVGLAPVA
structure (smiles),measurement,setting,value
"CC(C)C[C@H](NC(=O)[C@H](CCCCN)NC(=O)[C@H](CCCCN)NC(=O)[C@H](Cc1ccc(C(=O)c2ccccc2)cc1)NC(=O)[C@H](CCCNC(=N)N)NC(=O)[C@H](Cc1c[nH]c2ccccc12)NC(=O)[C@H](CCC(N)=O)NC(=O)[C@H](Cc1c[nH]c2ccccc12)NC(=O)[C@H](CCCNC(=N)N)NC(=O)[C@@H](N)CCCNC(=N)N)C(=O)NCC(=O)NCCCC[C@H](NC(=O)CNC(=O)[C@H](CC(C)C)NC(=O)[C@H](CCCCN)NC(=O)[C@H](CCCCN)NC(=O)[C@H](Cc1ccc(C(=O)c2ccccc2)cc1)NC(=O)[C@H](CCCNC(=N)N)NC(=O)[C@H](Cc1c[nH]c2ccccc12)NC(=O)[C@H](CCC(N)=O)NC(=O)[C@H](Cc1c[nH]c2ccccc12)NC(=O)[C@H](CCCNC(=N)N)NC(=O)[C@@H](N)CCCNC(=N)N)C(=O)NCCCCCC(N)=O [^26[Bpa], (RRWQWR-Bpa-KKLG)2-K-Ahx] (I: H-RRWQWR[Bpa]KKLGK[Ahx]-NH2 / II: H-RRWQWR[Bpa]KKLG; amide I:12-II:C)",IC50,"MCF-7 breast cancer line; MTT, MCF-7, peptide treatment for 2 hours at 37°C, three independent experiments with n = 4, nonlinear regression, read-out: IC50",17 µM
"CC(C)C[C@H](NC(=O)[C@H](CCCCN)NC(=O)[C@H](CCCCN)NC(=O)[C@H](Cc1cccc2ccccc12)NC(=O)[C@H](CCCNC(=N)N)NC(=O)[C@H](Cc1c[nH]c2ccccc12)NC(=O)[C@H](CCC(N)=O)NC(=O)[C@H](Cc1c[nH]c2ccccc12)NC(=O)[C@H](CCCNC(=N)N)NC(=O)[C@@H](N)CCCNC(=N)N)C(=O)NCC(=O)NCCCC[C@H](NC(=O)CNC(=O)[C@H](CC(C)C)NC(=O)[C@H](CCCCN)NC(=O)[C@H](CCCCN)NC(=O)[C@H](Cc1cccc2ccccc12)NC(=O)[C@H](CCCNC(=N)N)NC(=O)[C@H](Cc1c[nH]c2ccccc12)NC(=O)[C@H](CCC(N)=O)NC(=O)[C@H](Cc1c[nH]c2ccccc12)NC(=O)[C@H](CCCNC(=N)N)NC(=O)[C@@H](N)CCCNC(=N)N)C(=O)NCCCCCC(N)=O [^26[1-Nal], (RRWQWR-1-Nal-KKLG)2-K-Ahx] (I: H-RRWQWR[1Nal]KKLGK[Ahx]-NH2 / II: H-RRWQWR[1Nal]KKLG; amide I:12-II:C)",IC50,MCF-7 breast cancer line; 2 h,14 µM
same,IC50 MCF-7,MCF-7 breast cancer line; 2 h,48(14) µg mL^−1
same,IC50 HeLa,[1],55(16) µg mL^−1
same,IC50 fibroblasts,[2],30(9) µg mL^−1
same,selectivity index IC50 fibroblasts/IC50 MCF-7,[2]; ratio of IC50 values,0.6
same,selectivity index IC50 fibroblasts/IC50 HeLa,[2]; [4],0.5
same,IC50 HEK-293,[3],86(25) µg mL^−1
same,selectivity index IC50 HEK-293/IC50 MCF-7,[3]; ratio of IC50 values,1.8
same,selectivity index IC50 HEK-293/IC50 HeLa,[3]; [4],1.5
same,IC50 erythrocytes,human erythrocytes; 2 h,>200(>58) µg mL^−1
same,selectivity index IC50 erythrocytes/IC50 MCF-7,human erythrocytes; ratio of IC50 values,> 4.1
same,selectivity index IC50 erythrocytes/IC50 HeLa,human erythrocytes; [4],> 3.6
same,observed signs after ip administration (Irwin test),"CD1 mice; experiment 1, male CD1 mice, ip 70 mg kg^−1",motor function decreased 30 min after peptide administration and abdominal contortions were observed
same,survival (%) ip,"CD1 mice; experiment 1, male CD1 mice, single ip dose 70 mg kg^−1, n = 3, one week of observation",33%
same,survival (%) sc,"CD1 mice; experiment 1, male CD1 mice, single sc dose 70 mg kg^−1, n = 3",100%
same,survival (%) ip,"CD1 mice; experiment 2, female CD1 mice, single ip dose 8.8 mg kg^−1, n = 3",100%
same,survival (%) ip,"CD1 mice; experiment 2, female CD1 mice, single ip dose 17.5 mg kg^−1, n = 3",100%
same,survival (%) ip,"CD1 mice; experiment 2, female CD1 mice, single ip dose 35.0 mg kg^−1, n = 3",100%
same,survival (%) ip,"CD1 mice; experiment 2, female CD1 mice, single ip dose 70.0 mg kg^−1, n = 3",100%
same,proteolytic degradation by pepsin,pepsin,unaffected
same,"proteolytic degradation by trypsin, 10 min",trypsin,"less degradation, with the majority being intact dimeric peptide"
same,"proteolytic degradation by trypsin, 3 h",trypsin,"three main species, with tR = 3.7, 5.4 min and unaffected peptide tR = 6.4 min"
"CC(C)C[C@H](NC(=O)[C@H](CCCCN)NC(=O)[C@H](CCCCN)NC(=O)[C@@H](NC(=O)[C@H](CCCNC(=N)N)NC(=O)[C@H](Cc1c[nH]c2ccccc12)NC(=O)[C@H](CCC(N)=O)NC(=O)[C@H](Cc1c[nH]c2ccccc12)NC(=O)[C@H](CCCNC(=N)N)NC(=O)[C@@H](N)CCCNC(=N)N)C(c1ccccc1)c1ccccc1)C(=O)NCC(=O)NCCCC[C@H](NC(=O)CNC(=O)[C@H](CC(C)C)NC(=O)[C@H](CCCCN)NC(=O)[C@H](CCCCN)NC(=O)[C@@H](NC(=O)[C@H](CCCNC(=N)N)NC(=O)[C@H](Cc1c[nH]c2ccccc12)NC(=O)[C@H](CCC(N)=O)NC(=O)[C@H](Cc1c[nH]c2ccccc12)NC(=O)[C@H](CCCNC(=N)N)NC(=O)[C@@H](N)CCCNC(=N)N)C(c1ccccc1)c1ccccc1)C(=O)NCCCCCC(N)=O [^26[Dip], (RRWQWR-Dip-KKLG)2-K-Ahx] (I: H-RRWQWR[Dip]KKLGK[Ahx]-NH2 / II: H-RRWQWR[Dip]KKLG; amide I:12-II:C)",IC50,MCF-7 breast cancer line; 2 h,34 µM
"CC(C)C[C@H](NC(=O)[C@H](CCCCN)NC(=O)[C@H](CCCCN)NC(=O)[C@H](CCc1ccccc1)NC(=O)[C@H](CCCNC(=N)N)NC(=O)[C@H](Cc1c[nH]c2ccccc12)NC(=O)[C@H](CCC(N)=O)NC(=O)[C@H](Cc1c[nH]c2ccccc12)NC(=O)[C@H](CCCNC(=N)N)NC(=O)[C@@H](N)CCCNC(=N)N)C(=O)NCC(=O)NCCCC[C@H](NC(=O)CNC(=O)[C@H](CC(C)C)NC(=O)[C@H](CCCCN)NC(=O)[C@H](CCCCN)NC(=O)[C@H](CCc1ccccc1)NC(=O)[C@H](CCCNC(=N)N)NC(=O)[C@H](Cc1c[nH]c2ccccc12)NC(=O)[C@H](CCC(N)=O)NC(=O)[C@H](Cc1c[nH]c2ccccc12)NC(=O)[C@H](CCCNC(=N)N)NC(=O)[C@@H](N)CCCNC(=N)N)C(=O)NCCCCCC(N)=O [^26[hF], (RRWQWR-hF-KKLG)2-K-Ahx] (I: H-RRWQWR[hPhe]KKLGK[Ahx]-NH2 / II: H-RRWQWR[hPhe]KKLG; amide I:12-II:C)",IC50,MCF-7 breast cancer line; 2 h,18 µM
same,IC50 MCF-7,MCF-7 breast cancer line; 2 h,60(18) µg mL^−1
same,IC50 HeLa,[1],53(16) µg mL^−1
same,selectivity index IC50 fibroblasts/IC50 HeLa,[2],1.2
same,selectivity index IC50 fibroblasts/IC50 MCF-7,[2],1.0
same,IC50 fibroblasts,[2],63(19) µg mL^−1
same,IC50 HEK-293,[3],134(40) µg mL^−1
same,IC50 erythrocytes,human erythrocytes; 2 h,>200(>59) µg mL^−1
same,selectivity index IC50 erythrocytes/IC50 HeLa,human erythrocytes; 2 h,> 3.7
same,selectivity index IC50 erythrocytes/IC50 MCF-7,human erythrocytes; 2 h,> 3.3
same,proteolytic degradation by pepsin,pepsin,unaffected
same,"proteolytic degradation by trypsin, 10 min",trypsin,two fragments were also generated
